According to PubChem BioAssay AID256 (DTP/NCI, 2004):
Values joined by “and” are separate entries in the source; they are usually repeats but may differ in a detail not shown here. Equal values may be shown once. Inconclusive results and toxic doses are left out. The calls were made as follows: active = survival T/C of 150% or more; inactive = T/C below 125% in these data.

Test system: CD2F1 mice, L1210 leukemia ip, survival T/C
Assay: NCI In Vivo Anticancer Drug Screen. Data for tumor model L1210 Leukemia (intraperitoneal) in CD2F1 (CDF1) mice
Settings: higher = longer survival
Procedure, shortened: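 In this screen, transplantable tumors were grown in mice given either the compound or its vehicle. Results were expressed as the treated measurement relative to the control measurement.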

[1] = endpoint: mean survival time, dose: 100.0 mg/kg/injection, schedule: Q04DX003 (ip), vehicle: saline with Tween-80
[2] = endpoint: mean survival time, dose: 200.0 mg/kg/injection, schedule: Q04DX003 (ip), vehicle: saline with Tween-80
[3] = endpoint: mean survival time, dose: 100.0 mg/kg/injection, schedule: Q04DX002 (ip), vehicle: saline with Tween-80
[4] = endpoint: mean survival time, dose: 200.0 mg/kg/injection, schedule: Q04DX002 (ip), vehicle: saline with Tween-80
[5] = endpoint: mean survival time, dose: 400.0 mg/kg/injection, schedule: Q04DX002 (ip), vehicle: saline with Tween-80

Measured: T/C

CCC(C)OP(=S)(S)OC(C)CC.[Zn+2] (stereo unspecified)
inactive: endpoint: mean survival time, dose: 0.75 mg/kg/injection, schedule: Q01DX009 (ip), vehicle: saline with Tween-80 88 % of control and 90 % of control | endpoint: mean survival time, dose: 1.5 mg/kg/injection, schedule: Q01DX009 (ip), vehicle: saline with Tween-80 103 % of control | endpoint: mean survival time, dose: 3.0 mg/kg/injection, schedule: Q01DX009 (ip), vehicle: saline with Tween-80 88 % of control and 92 % of control | endpoint: mean survival time, dose: 3.13 mg/kg/injection, schedule: Q01DX009 (ip), vehicle: saline with Tween-80 86 % of control and 88 % of control | endpoint: mean survival time, dose: 6.25 mg/kg/injection, schedule: Q04DX003 (ip), vehicle: saline with Tween-80 93 % of control | endpoint: mean survival time, dose: 12.5 mg/kg/injection, schedule: Q01DX001 (ip), vehicle: saline with Tween-80 101 % of control | endpoint: mean survival time, dose: 12.5 mg/kg/injection, schedule: Q04DX003 (ip), vehicle: saline with Tween-80 95 % of control | endpoint: mean survival time, dose: 25.0 mg/kg/injection, schedule: Q01DX001 (ip), vehicle: saline with Tween-80 100 % of control | endpoint: mean survival time, dose: 25.0 mg/kg/injection, schedule: Q04DX002 (ip), vehicle: saline with Tween-80 94 % of control and 100 % of control | endpoint: mean survival time, dose: 25.0 mg/kg/injection, schedule: Q04DX003 (ip), vehicle: saline with Tween-80 97 % of control | endpoint: mean survival time, dose: 50.0 mg/kg/injection, schedule: Q04DX002 (ip), vehicle: saline with Tween-80 120 % of control and 94 % of control

O=[N+]([O-])/C=C/c1ccccc1
inactive: endpoint: mean survival time, dose: 20.0 mg/kg/injection, schedule: Q01DX009 (ip), vehicle: saline with Tween-80 106 % of control | endpoint: mean survival time, dose: 20.0 mg/kg/injection, schedule: Q04DX003 (ip), vehicle: saline with Tween-80 102 % of control | endpoint: mean survival time, dose: 40.0 mg/kg/injection, schedule: Q04DX003 (ip), vehicle: saline with Tween-80 96 % of control | endpoint: mean survival time, dose: 80.0 mg/kg/injection, schedule: Q04DX003 (ip), vehicle: saline with Tween-80 94 % of control

NCCCNc1ccc([N+](=O)[O-])cc1
inactive: endpoint: mean survival time, dose: 75.0 mg/kg/injection, schedule: Q01DX001 (ip), vehicle: saline 98 % of control | endpoint: mean survival time, dose: 150.0 mg/kg/injection, schedule: Q01DX001 (ip), vehicle: saline 106 % of control | endpoint: mean survival time, dose: 300.0 mg/kg/injection, schedule: Q01DX001 (ip), vehicle: saline 98 % of control

CCN1/C(=C\c2ccc3cc(C)ccc3[n+]2CC)[Se]c2ccccc21
inactive: endpoint: mean survival time, dose: 1.25 mg/kg/injection, schedule: Q01DX001 (ip), vehicle: other 105 % of control | endpoint: mean survival time, dose: 2.5 mg/kg/injection, schedule: Q01DX001 (ip), vehicle: other 101 % of control | endpoint: mean survival time, dose: 5.0 mg/kg/injection, schedule: Q01DX001 (ip), vehicle: other 106 % of control

N#CC(C#N)=Cc1cccc(CC(O)(C(F)(F)F)C(F)(F)F)n1
inactive: [1] 105 % of control | [2] 94 % of control

COc1cc(CO)ccc1Oc1ccc(C)cc1
inactive: endpoint: mean survival time, dose: 100.0 mg/kg/injection, schedule: Q01DX001 (ip), vehicle: saline 104 % of control | endpoint: mean survival time, dose: 100.0 mg/kg/injection, schedule: Q04DX003 (ip), vehicle: saline 100 % of control | endpoint: mean survival time, dose: 200.0 mg/kg/injection, schedule: Q01DX001 (ip), vehicle: saline 107 % of control | endpoint: mean survival time, dose: 200.0 mg/kg/injection, schedule: Q04DX003 (ip), vehicle: saline 100 % of control | endpoint: mean survival time, dose: 400.0 mg/kg/injection, schedule: Q01DX001 (ip), vehicle: saline 100 % of control | endpoint: mean survival time, dose: 400.0 mg/kg/injection, schedule: Q04DX003 (ip), vehicle: saline 101 % of control

CCOC(=O)C(C(=O)c1ccccc1)c1cc(NS(=O)(=O)c2ccccc2)ccc1O (stereo unspecified)
inactive: endpoint: mean survival time, dose: 132.0 mg/kg/injection, schedule: Q04DX003 (ip), vehicle: saline with Tween-80 115 % of control | [2] 106 % of control | endpoint: mean survival time, dose: 300.0 mg/kg/injection, schedule: Q04DX003 (ip), vehicle: saline with Tween-80 103 % of control

O=NN1CCOC1=NC1CCCCC1
inactive: endpoint: mean survival time, dose: 3.12 mg/kg/injection, schedule: Q01DX001 (ip), vehicle: distilled water + Tween-80 97 % of control | endpoint: mean survival time, dose: 6.25 mg/kg/injection, schedule: Q01DX001 (ip), vehicle: distilled water + Tween-80 94 % of control | endpoint: mean survival time, dose: 12.5 mg/kg/injection, schedule: Q01DX001 (ip), vehicle: distilled water + Tween-80 98 % of control | endpoint: mean survival time, dose: 25.0 mg/kg/injection, schedule: Q01DX001 (ip), vehicle: distilled water + Tween-80 97 % of control | endpoint: mean survival time, dose: 50.0 mg/kg/injection, schedule: Q01DX001 (ip), vehicle: distilled water + Tween-80 100 % of control | endpoint: mean survival time, dose: 100.0 mg/kg/injection, schedule: Q01DX001 (ip), vehicle: distilled water + Tween-80 100 % of control | endpoint: mean survival time, dose: 200.0 mg/kg/injection, schedule: Q01DX001 (ip), vehicle: distilled water + Tween-80 110 % of control | endpoint: mean survival time, dose: 400.0 mg/kg/injection, schedule: Q01DX001 (ip), vehicle: distilled water + Tween-80 110 % of control

COc1ccc2c(ccc3nc(C)[nH]c(=O)c32)c1
inactive: endpoint: mean survival time, dose: 25.0 mg/kg/injection, schedule: Q01DX001 (ip), vehicle: Klucel (hydroxypropylcellulose) (HPC) 102 % of control | endpoint: mean survival time, dose: 50.0 mg/kg/injection, schedule: Q01DX001 (ip), vehicle: Klucel (hydroxypropylcellulose) (HPC) 94 % of control | endpoint: mean survival time, dose: 100.0 mg/kg/injection, schedule: Q01DX001 (ip), vehicle: Klucel (hydroxypropylcellulose) (HPC) 90 % of control

OC1C2COC(O2)C(O)C1O (stereo unspecified)
inactive: endpoint: mean survival time, dose: 100.0 mg/kg/injection, schedule: Q01DX009 (ip), vehicle: saline 98 % of control | endpoint: mean survival time, dose: 200.0 mg/kg/injection, schedule: Q01DX009 (ip), vehicle: saline 101 % of control | endpoint: mean survival time, dose: 400.0 mg/kg/injection, schedule: Q01DX009 (ip), vehicle: saline 98 % of control

O=c1[nH]cnc2c1ncn2CCCCCO
inactive: endpoint: mean survival time, dose: 100.0 mg/kg/injection, schedule: Q01DX001 (ip), vehicle: saline with Tween-80 95 % of control | [3] 97 % of control | endpoint: mean survival time, dose: 200.0 mg/kg/injection, schedule: Q01DX001 (ip), vehicle: saline with Tween-80 100 % of control | [4] 102 % of control | endpoint: mean survival time, dose: 400.0 mg/kg/injection, schedule: Q01DX001 (ip), vehicle: saline with Tween-80 95 % of control | [5] 94 % of control

CCOC(=O)C12CCCCCC1CC(=O)CC2 (stereo unspecified)
inactive: endpoint: mean survival time, dose: 100.0 mg/kg/injection, schedule: Q04DX003 (ip), vehicle: acetone 96 % of control | endpoint: mean survival time, dose: 200.0 mg/kg/injection, schedule: Q04DX003 (ip), vehicle: acetone 93 % of control | endpoint: mean survival time, dose: 400.0 mg/kg/injection, schedule: Q04DX003 (ip), vehicle: acetone 86 % of control

N#CC(OC1OC(COC2OC(CO)C(O)C(O)C2O)C(O)C(O)C1O)c1ccccc1 (stereo unspecified)
inactive: endpoint: mean survival time, dose: 12.5 mg/kg/injection, schedule: Q01DX009 (ip), vehicle: water 94 % of control | endpoint: mean survival time, dose: 25.0 mg/kg/injection, schedule: Q01DX009 (ip), vehicle: water 88 % of control and 104 % of control | endpoint: mean survival time, dose: 50.0 mg/kg/injection, schedule: Q01DX009 (ip), vehicle: water 98 % of control and 102 % of control | endpoint: mean survival time, dose: 100.0 mg/kg/injection, schedule: Q01DX009 (ip), vehicle: water 94 % of control and 96 % of control | endpoint: mean survival time, dose: 200.0 mg/kg/injection, schedule: Q01DX009 (ip), vehicle: water 91 % of control and 102 % of control | endpoint: mean survival time, dose: 400.0 mg/kg/injection, schedule: Q01DX009 (ip), vehicle: water 95 % of control and 97 % of control | endpoint: mean survival time, dose: 800.0 mg/kg/injection, schedule: Q01DX009 (ip), vehicle: water 93 % of control and 100 % of control

O=c1[nH]cc(Br)cc1[N+](=O)[O-]
inactive: [3] 101 % of control | [4] 112 % of control | [5] 108 % of control

O=C(O)c1cc(-c2ccc(F)cc2)nc2ccc(F)cc12
inactive: [1] 101 % of control | [2] 97 % of control

CCNC1=C(C)C(=O)c2c(c(COC(N)=O)c3n2CC(NC(C)=O)C3O)C1=O (stereo unspecified)
inactive: endpoint: mean survival time, dose: 33.0 mg/kg/injection, schedule: Q01DX001 (ip), vehicle: carboxymethylcellulose (CMC) 98 % of control | endpoint: mean survival time, dose: 50.0 mg/kg/injection, schedule: Q01DX001 (ip), vehicle: carboxymethylcellulose (CMC) 98 % of control | endpoint: mean survival time, dose: 75.0 mg/kg/injection, schedule: Q01DX001 (ip), vehicle: carboxymethylcellulose (CMC) 102 % of control

O=c1ccnc2cc[nH]n12
inactive: endpoint: median survival time, dose: 50.0 mg/kg/injection, schedule: Q01DX005 (ip), vehicle: saline 104 % of control | endpoint: median survival time, dose: 100.0 mg/kg/injection, schedule: Q01DX005 (ip), vehicle: saline 101 % of control | endpoint: median survival time, dose: 200.0 mg/kg/injection, schedule: Q01DX005 (ip), vehicle: saline 101 % of control

CC(=O)OCC1OC(n2c(Br)nc3c(=O)[nH]c(N)nc32)C(OC(C)=O)C1OC(C)=O (stereo unspecified)
inactive: [1] 100 % of control | [2] 105 % of control | endpoint: mean survival time, dose: 400.0 mg/kg/injection, schedule: Q04DX003 (ip), vehicle: saline with Tween-80 107 % of control
